From patent US20250179047A1, “5-[7-(3,4-DIHYDRO-1H-ISOQUINOLINE-2-CARBONYL)-1,2,3,4 TETRAHYDROISOQUINOLIN-6-YL]-1H-PYRROLE-3-CARBOXAMIDE DERIVATIVES, PHARMACEUTICAL COMPOSITIONS CONTAINING THEM AND THEIR USES AS PRO-APOPTOTIC AGENTS” (LES LABORATOIRES SERVIER, priority 2022, published 2025) come the findings set out here.

One assay has as its target BCL2 D103Y (Homo sapiens, UniProt P10415, D103Y). As to the kind of experiment: TR-FRET competitive binding assay, BCL2 D103Y. To be noted: Ki determined from IC50, read-out: TR_FRET EKI_Bcl2 D103Y. Summed up: (§1)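 Competitive TR-FRET displacement of fluorescein-PUMA peptide (2 or 20 nM) from 0.5 nM terbium-labelled N-terminal Halo-fusion BCL2 (1-207, wild type or mutant) or BCLXL (2-196), expressed in E. coli. Buffer 50 mM Hepes pH 7.5, 150 mM NaCl, 5% DMSO; 2 h at 23°C. 520/495 nm ratio fitted over 11 points for IC50, converted to Ki.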
Background: Time-resolved FRET reads energy transfer from a long-lived donor to a nearby acceptor.

Assay [1] addresses BCL2 G101V (Homo sapiens, UniProt P10415, G101V). The experiment in a line: TR-FRET competitive binding assay, BCL2 G101V. The following applies: BCL2 G101V; Ki determined from IC50; read-out: TR_FRET EKI_Bcl2 G101V. A digest of the protocol:
as §1

The test system of assay [2] is BCL2 G101V. The experiment in a line: TR-FRET competitive binding assay, BCL2 G101V. Further details: species or system human. The following applies: for TR_FRET EKI G101V/WT selectivty ratio: ratio Ki BCL2 G101V / Ki BCL2 WT; for TR_FRET EKI G101V/WT selectivty: ratio of Ki BCL2 G101V to BCL2 WT. Summed up: as §1
For another assay, the system named is KMS-12-PE Bcl-2 WT. The experiment in a line: In vitro cytotoxicity CellTiter-Glo 48 h, KMS-12-PE Bcl-2 WT. Type of assay: cell-based. The following applies: Homo sapiens, KMS-12-PE, C50 = concentration needed to reach 50% of the cellular viability. A digest of the protocol: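 KMS-12-PE myeloma cells were lentivirally transduced with wild-type or G101V-mutant Bcl-2 and sorted by TagRFP. They were exposed to compounds as 11-point dose responses for 48 h at 37 °C, 5% CO2. Viability was read by CellTiter-Glo ATP luminescence, and C50 was the concentration giving 50% viability.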
(In general: Cellular ATP, detected with luciferase, serves as a proxy for viable cell number.)

For another assay, the target named is BCL2 WT (Homo sapiens (Human), UniProt P10415). As to the kind of experiment: TR-FRET competitive binding assay, BCL2 WT. Summed up:
as §1

Another assay deals with BCLXL WT (Homo sapiens (Human), UniProt Q07817). As to the kind of experiment: TR-FRET competitive binding assay, BCLXL WT. The following applies: for Ki: BCLXL WT, Ki determined from IC50, read-out: TR_FRET EKI BclxL; for TR_FRET EKI BCLxL/WT selectivty ratio: ratio Ki BCLxL / Ki BCL2 WT; for TR_FRET EKI BCLxL/WT selectivty: ratio of Ki BCLxL to BCL2 WT. A digest of the protocol:
as §1

Where [3] appears, read: Ki determined from IC50, read-out: TR_FRET EKI_Bcl2 WT.
Where [4] appears, read: Ki determined from IC50, read-out: TR_FRET EKI_Bcl2.

Molecules are shown by their SMILES. Like-named read-outs stand apart in the source and are kept apart here.

Chain of BCLXL WT (Q07817 other isoform, or with tags, fused parts or gaps): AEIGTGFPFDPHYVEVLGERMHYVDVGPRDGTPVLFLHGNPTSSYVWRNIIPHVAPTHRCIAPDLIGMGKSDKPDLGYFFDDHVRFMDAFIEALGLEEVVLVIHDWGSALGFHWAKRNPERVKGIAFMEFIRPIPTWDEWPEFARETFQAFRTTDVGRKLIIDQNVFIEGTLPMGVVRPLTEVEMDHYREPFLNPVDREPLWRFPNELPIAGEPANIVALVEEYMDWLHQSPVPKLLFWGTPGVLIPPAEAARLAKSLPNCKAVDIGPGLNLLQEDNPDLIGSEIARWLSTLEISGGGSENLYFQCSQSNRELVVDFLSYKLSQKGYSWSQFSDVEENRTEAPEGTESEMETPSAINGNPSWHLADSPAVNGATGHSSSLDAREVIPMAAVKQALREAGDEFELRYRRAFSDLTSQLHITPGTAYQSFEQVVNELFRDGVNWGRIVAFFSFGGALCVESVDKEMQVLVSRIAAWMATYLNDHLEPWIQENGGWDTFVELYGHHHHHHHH

One may read the IC50 as the concentration that inhibits the measured activity by half. A higher IC50 goes with lower potency. Turning to `Cc1c(N(C(=O)c2cc(-c3cc4c(cc3C(=O)N3Cc5ccccc5C[C@H]3C)CN(C(=O)Cc3ccc(OCCN(C)C)cc3F)CC4)n(C)c2C)c2ccccc2)cc(C#N)n1C` [Example 213, N-(5-cyano-1,2-dimethyl-pyrrol-3-yl)-5-[2-[2-[4-[2-(dimethylamino)ethoxy]-2-fluoro-phenyl]acetyl]-7-[(3R)-3-methyl-3,4-dihydro-1H-isoquinoline-2-carbonyl]-3,4-dihydro-1H-isoquinolin-6-yl]-1,2-dimethyl-N-phenyl-pyrrole-3-carboxamide], the Ki came to 0.03 nM at BCL2 D103Y, 0.4 nM on BCL2 G101V [1], 0.01 nM at BCL2 WT (setting [3]) and 1 nM at BCLXL WT. For the same compound, the “TR_FRET EKI G101V/WT selectivty ratio” value with BCL2 G101V [2] worked out at 46.6. In addition, in the assay with KMS-12-PE Bcl-2 WT, the IC50 was found to be 0.0053 µM. Moreover, the “TR_FRET EKI BCLxL/WT selectivty ratio” value on BCLXL WT is reported as 108.9.

Turning to `COC[C@@H]1Cc2ccccc2CN1C(=O)c1cc2c(cc1-c1cc(C(=O)N(c3ccccc3)c3cnn(C(F)F)c3)c(C)n1C)CCN(C(=O)Cc1ccc(OCCN3CCOCC3)cc1)C2` [Example 205, N-[1-(difluoromethyl)pyrazol-4-yl]-5-[7-[(3S)-3-(methoxymethyl)-3,4-dihydro-1H-isoquinoline-2-carbonyl]-2-[2-[4-(2-morpholinoethoxy)phenyl]acetyl]-3,4-dihydro-1H-isoquinolin-6-yl]-1,2-dimethyl-N-phenyl-pyrrole-3-carboxamide], the Ki worked out at 0.19 nM at BCL2 D103Y, 7.4 nM at BCL2 G101V [1], 0.07 nM on BCL2 WT (setting [3]) and 20 nM on BCLXL WT. In addition, the “TR_FRET EKI G101V/WT selectivty ratio” value in the assay on BCL2 G101V [2] stood at 100.3. For the same compound, the IC50 with KMS-12-PE Bcl-2 WT amounted to 0.0126 µM. Also, the “TR_FRET EKI BCLxL/WT selectivty ratio” value at BCLXL WT turned out to be 270.3.

As for `Cc1c(C(=O)N(c2ccc(O)cc2)c2cnn(C)c2)cc(-c2cc3c(cc2C(=O)N2Cc4ccccc4C[C@H]2C)CN(C(=O)Cc2ccc(OCCN4CCOCC4)cc2F)CC3)n1C` [Example 233], the Ki is 0.08 nM on BCL2 D103Y, 0.32 nM at BCL2 G101V [1], 0.039 nM on BCL2 WT (setting [4]) and 2.74 nM at BCLXL WT. The “TR_FRET EKI G101V/WT selectivty” value with BCL2 G101V [2] was 8.2. Besides, the IC50 in the assay with KMS-12-PE Bcl-2 WT turned out to be 0.00694 µM. Moreover, on BCLXL WT, the “TR_FRET EKI BCLxL/WT selectivty” value turned out to be 70.3.

Turning to `COc1ccc(N(C(=O)c2cc(-c3cc4c(cc3C(=O)N3Cc5ccccc5C[C@H]3C)CN(C(=O)Cc3ccc(OCCN5CCOCC5)cc3F)CC4)n(C)c2C)c2ccccc2)cn1` [Example 192, 5-[2-[2-[2-fluoro-4-(2-morpholinoethoxy)phenyl]acetyl]-7-[(3R)-3-methyl-3,4-dihydro-1H-isoquinoline-2-carbonyl]-3,4-dihydro-1H-isoquinolin-6-yl]-N-(6-methoxy-3-pyridyl)-1,2-dimethyl-N-phenyl-pyrrole-3-carboxamide], the Ki came to 0.11 nM on BCL2 D103Y, 2.6 nM at BCL2 G101V [1], 0.04 nM on BCL2 WT (setting [3]) and 7.7 nM at BCLXL WT. Moreover, in the assay with BCL2 G101V [2], the “TR_FRET EKI G101V/WT selectivty ratio” value is 58.9. Inhibition in the assay with KMS-12-PE Bcl-2 WT was half-maximal at 0.0083 µM (IC50). Also, the “TR_FRET EKI BCLxL/WT selectivty ratio” value at BCLXL WT came out at 175.0.

As for `COCC(=O)N1CCc2cc(-c3cc(C(=O)N(c4ccccc4)c4cc(C#N)n(C)c4C)c(C)n3C)c(C(=O)N3Cc4ccccc4C[C@H]3CN3CCCCC3)cc2C1` [Example 189, N-(5-cyano-1,2-dimethyl-pyrrol-3-yl)-5-[2-(2-methoxyacetyl)-7-[(3S)-3-(1-piperidylmethyl)-3,4-dihydro-1H-isoquinoline-2-carbonyl]-3,4-dihydro-1H-isoquinolin-6-yl]-1,2-dimethyl-N-phenyl-pyrrole-3-carboxamide], the Ki on BCL2 D103Y was 1.99 nM; at BCL2 G101V [1] it was 17.4 nM; on BCL2 WT (setting [3]) it was 0.19 nM; on BCLXL WT, 33.4 nM. Also, the “TR_FRET EKI G101V/WT selectivty ratio” value with BCL2 G101V [2] is 92.0. Further, in the assay on KMS-12-PE Bcl-2 WT, the IC50 is 0.0299 µM. Moreover, at BCLXL WT, the “TR_FRET EKI BCLxL/WT selectivty ratio” value stood at 176.8.

On to `Cc1c(C(=O)N(c2ccccc2)c2cnn(C(F)F)c2)cc(-c2cc3c(cc2C(=O)N2Cc4ccccc4C[C@H]2CN2CC4(CCC4)C2)CN(C(=O)Cc2ccc(OCCN4CCOCC4)cc2)CC3)n1C` [Example 206, 5-[7-[(3S)-3-(2-azaspiro[3.3]heptan-2-ylmethyl)-3,4-dihydro-1H-isoquinoline-2-carbonyl]-2-[2-[4-(2-morpholinoethoxy)phenyl]acetyl]-3,4-dihydro-1H-isoquinolin-6-yl]-N-[1-(difluoromethyl)pyrazol-4-yl]-1,2-dimethyl-N-phenyl-pyrrole-3-carboxamide], for which the Ki on BCL2 D103Y was 0.09 nM; at BCL2 G101V [1], 4.5 nM; on BCL2 WT (setting [3]), 0.014 nM; on BCLXL WT, 107 nM. Also, the “TR_FRET EKI G101V/WT selectivty ratio” value with BCL2 G101V [2] was 321.5. For the same compound, the midpoint of inhibition with KMS-12-PE Bcl-2 WT, the IC50, lay at 0.047 µM. Moreover, the “TR_FRET EKI BCLxL/WT selectivty ratio” value on BCLXL WT was found to be 7642.9.

Turning to `Cc1c(C(=O)N(c2ccccc2)c2cnn(C(F)F)c2)cc(-c2cc3c(cc2C(=O)N2Cc4ccccc4C[C@H]2CN2CCCCC2)CN(C(=O)Cc2ccc(OCCC4CCOCC4)cc2)CC3)n1C` [Example 241], the Ki was 0.64 nM at BCL2 D103Y, 39.2 nM at BCL2 G101V [1], 0.244 nM at BCL2 WT (setting [4]) and 52.7 nM on BCLXL WT. Moreover, the “TR_FRET EKI G101V/WT selectivty” value in the assay on BCL2 G101V [2] is 160.7. In addition, the IC50 in the assay with KMS-12-PE Bcl-2 WT amounted to 0.0586 µM. Also, the “TR_FRET EKI BCLxL/WT selectivty” value at BCLXL WT amounted to 216.

On to `Cc1nn(C)cc1N(C(=O)c1cc(-c2cc3c(cc2C(=O)N2Cc4ccccc4C[C@H]2C)CN(C(=O)Cc2ccc(OCCN4CCOCC4)cc2F)CC3)n(C)c1C)c1ccccc1` [Example 187, N-(1,3-dimethylpyrazol-4-yl)-5-[2-[2-[2-fluoro-4-(2-morpholinoethoxy)phenyl]acetyl]-7-[(3R)-3-methyl-3,4-dihydro-1H-isoquinoline-2-carbonyl]-3,4-dihydro-1H-isoquinolin-6-yl]-1,2-dimethyl-N-phenyl-pyrrole-3-carboxamide], for which the Ki stood at 0.08 nM at BCL2 D103Y, 2.7 nM at BCL2 G101V [1], 0.03 nM on BCL2 WT (setting [3]) and 17.3 nM on BCLXL WT. For the same compound, in the assay on BCL2 G101V [2], the “TR_FRET EKI G101V/WT selectivty ratio” value is 78.9. The compound further had an IC50 with KMS-12-PE Bcl-2 WT of 0.0069 µM. Also, the “TR_FRET EKI BCLxL/WT selectivty ratio” value at BCLXL WT turned out to be 507.9.

Take `Cc1c(N(C(=O)c2cc(-c3cc4c(cc3C(=O)N3Cc5ccccc5C[C@H]3C)CN(C(=O)Cc3ccc(OCCN5CCOCC5)cc3F)CC4)n(C)c2C)c2ccccc2)cc(C#N)n1C` [Example 234]: the Ki on BCL2 D103Y stood at 0.16 nM; on BCL2 G101V [1], 0.76 nM; at BCL2 WT (setting [4]), 0.086 nM; at BCLXL WT, 3.68 nM. In addition, in the assay with BCL2 G101V [2], the “TR_FRET EKI G101V/WT selectivty” value came out at 8.9. Also, the IC50 with KMS-12-PE Bcl-2 WT was 0.00221 µM. Besides, the “TR_FRET EKI BCLxL/WT selectivty” value on BCLXL WT is on record as 42.8.

Consider `COc1ccc(N(C(=O)c2cc(-c3cc4c(cc3C(=O)N3Cc5ccccc5C[C@H]3C)CN(C(=O)Cc3ccc(OCCN5CCOCC5)cc3)CC4)n(C)c2C)c2ccccc2)cc1C#N` [Example 182, N-(3-cyano-4-methoxy-phenyl)-1,2-dimethyl-5-[7-[(3R)-3-methyl-3,4-dihydro-1H-isoquinoline-2-carbonyl]-2-[2-[4-(2-morpholinoethoxy)phenyl]acetyl]-3,4-dihydro-1H-isoquinolin-6-yl]-N-phenyl-pyrrole-3-carboxamide], for which the Ki amounted to 0.3 nM on BCL2 D103Y, 1.5 nM at BCL2 G101V [1], 0.11 nM on BCL2 WT (setting [3]) and 11.8 nM on BCLXL WT. Besides, the “TR_FRET EKI G101V/WT selectivty ratio” value in the assay on BCL2 G101V [2] is 13.3. In the assay with KMS-12-PE Bcl-2 WT, this compound came in with an IC50 of 0.0097 µM. Moreover, on BCLXL WT, the “TR_FRET EKI BCLxL/WT selectivty ratio” value is on record as 107.1.

In the case of `Cc1c(C(=O)N(c2ccc(O)cc2)c2cc(C#N)n(C(F)F)c2C)cc(-c2cc3c(cc2C(=O)N2Cc4ccccc4C[C@H]2CN2CC4(CCC4)C2)CN(C(=O)Cc2ccc(OCCC4CCOCC4)cc2)CC3)n1C` [Example 180, 5-[7-[(3S)-3-(2-azaspiro[3.3]heptan-2-ylmethyl)-3,4-dihydro-1H-isoquinoline-2-carbonyl]-2-[2-[4-(2-tetrahydropyran-4-ylethoxy)phenyl]acetyl]-3,4-dihydro-1H-isoquinolin-6-yl]-N-[5-cyano-1-(difluoromethyl)-2-methyl-pyrrol-3-yl]-N-(4-hydroxyphenyl)-1,2-dimethyl-pyrrole-3-carboxamide], the Ki on BCL2 D103Y amounted to 0.15 nM; on BCL2 G101V [1] it was 0.3 nM; on BCL2 WT (setting [3]), 0.07 nM; on BCLXL WT, 17.2 nM. In addition, the “TR_FRET EKI G101V/WT selectivty ratio” value with BCL2 G101V [2] stood at 4.5. Further, 0.0078 µM corresponded to half-maximal inhibition with KMS-12-PE Bcl-2 WT (IC50). Moreover, at BCLXL WT, the “TR_FRET EKI BCLxL/WT selectivty ratio” value turned out to be 252.5.
